Results: paper PMC3522796 (Cancer letters, 2012)
Entries after “also recorded” stand apart in the source; their conditions may differ. Read-outs that look alike come from different tables or passages of the source.

Columns and labels:
HeLa cells = details: cited from earlier work
[1] = rabbit model; cited from earlier work
tubulin = tubulin (Sus scrofa, UniProt P02554); experiment: Tubulin polymerization assay; type: biochemical
[2] = tested on: 4T1 mouse mammary carcinoma cells; experiment: In-vitro cytotoxicity, MTT assay; type: cell-based
[3] = tested on: M109 subcutaneous lung tumor; details: cited from earlier work; for Antitumor efficacy: at MTD; for Tumor AUC of PX fold greater than Taxol: i.v.
human tumor cell lines = details: variety of human tumor cell lines; cited from earlier work
P-glycoprotein (P-gp) = details: cited from earlier work
microtubule = details: cited from earlier work; for Microtubule assembly: 10 µM
human MCF-7 cells = details: 72 h incubation; cited from earlier work
mice = details: cited from earlier work
[4] = tested on: metastatic malignant melanoma; details: Phase III, every 3-week treatment schedule; cited from earlier work

tubulin, sequence (P02554 whole entry): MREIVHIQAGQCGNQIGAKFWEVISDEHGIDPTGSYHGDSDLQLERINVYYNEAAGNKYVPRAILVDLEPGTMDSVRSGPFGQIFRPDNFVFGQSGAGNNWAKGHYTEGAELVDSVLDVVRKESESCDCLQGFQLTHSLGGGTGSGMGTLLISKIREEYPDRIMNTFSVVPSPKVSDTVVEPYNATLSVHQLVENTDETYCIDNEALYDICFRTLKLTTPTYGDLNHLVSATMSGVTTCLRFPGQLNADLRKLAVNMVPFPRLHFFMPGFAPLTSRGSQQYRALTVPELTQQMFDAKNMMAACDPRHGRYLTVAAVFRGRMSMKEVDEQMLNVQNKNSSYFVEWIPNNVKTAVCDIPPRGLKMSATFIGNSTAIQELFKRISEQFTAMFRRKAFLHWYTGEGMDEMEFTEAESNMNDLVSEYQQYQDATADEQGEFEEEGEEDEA
tubulin, sequence (P02550 whole entry partner): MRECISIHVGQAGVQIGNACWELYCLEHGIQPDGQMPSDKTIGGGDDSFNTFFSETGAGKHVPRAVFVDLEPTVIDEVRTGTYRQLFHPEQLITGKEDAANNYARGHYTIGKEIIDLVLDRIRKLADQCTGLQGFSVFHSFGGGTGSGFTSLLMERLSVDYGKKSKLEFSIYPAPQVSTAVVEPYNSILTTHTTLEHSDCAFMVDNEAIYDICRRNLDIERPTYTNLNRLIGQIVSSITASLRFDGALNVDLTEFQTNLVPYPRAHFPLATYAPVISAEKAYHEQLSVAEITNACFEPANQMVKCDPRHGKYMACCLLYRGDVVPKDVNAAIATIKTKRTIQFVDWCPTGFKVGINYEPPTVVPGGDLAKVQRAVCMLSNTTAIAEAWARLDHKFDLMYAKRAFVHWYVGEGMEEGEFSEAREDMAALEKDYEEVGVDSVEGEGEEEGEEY

CCCCCCCCC=CCCCCCCCC(=O)OC(C(=O)OC1CC2(O)C(OC(=O)c3ccccc3)C3C4(OC(C)=O)COC4CC(O)C3(C)C(=O)C(OC(C)=O)C(=C1C)C2(C)C)C(NC(=O)c1ccccc1)c1ccccc1 (stereo not drawn) [2’-oleate-PX]
IC50 (HeLa cells; 24 h incubation, in lipid emulsions): 5500 nM
IC50 (HeLa cells; 48 h incubation): 500 nM
IC50 (HeLa cells; 72 h incubation, in lipid emulsions): 150 nM
IC50 (HeLa cells; 96 h incubation, in lipid emulsions): 100 nM
Pharmacokinetics compared to PX formulated in Cremophor EL/Ethanol [1]: significantly greater AUC, higher Cmax, and lower systemic clearance

CC(=O)O[C@H]1C(=O)[C@@]2(C)[C@H]([C@H](OC(=O)c3ccccc3)[C@]3(O)C[C@H](OC(=O)[C@H](O)[C@@H](NC(=O)c4ccccc4)c4ccccc4)C(C)=C1C3(C)C)[C@]1(OC(C)=O)CO[C@@H]1C[C@@H]2O [PX, Paclitaxel]
Vmax of tubulin polymerization (tubulin; 10 µM, 37°C, 3 mg/ml tubulin, standard control 25.3 ± 3.2): 45.0 ± 3.6 mOD/min
Effect on tubulin polymerization (tubulin; 10 µM, compared to control): could stabilize microtubule proteins
IC50 ([2]; Mus musculus, 4T1, 48 h): 38 ± 1 nM
Antitumor efficacy [3]: did not result in even partial tumor regression
Cytotoxic concentration range (human tumor cell lines): nM range
P-gp substrate (P-glycoprotein (P-gp)): substrate of P-glycoprotein

2’-behenoyl-paclitaxel [Formulation C22-PX]
Effect on tubulin polymerization (tubulin; 5 µM, compared to control): no effect on tubulin polymerization
Effect on tubulin polymerization (tubulin; 10 µM, compared to control): no effect on tubulin polymerization; also recorded: no microtubule activity
Effect on tubulin polymerization (tubulin; 20 µM, compared to control (p < 0.01)): some tubulin polymerization activity
IC50 fold higher than PX ([2]; 4T1 cells): about 8 fold
IC50 ([2]; 4T1 cells, MTT, 48 h): 282 ± 42 nM

CCCCCC=CCC=CCCCCCCCC(=O)OC(C(=O)OC1CC2(O)C(OC(=O)c3ccccc3)C3C4(OC(C)=O)COC4CC(O)C3(C)C(=O)C(OC(C)=O)C(=C1C)C2(C)C)C(NC(=O)c1ccccc1)c1ccccc1 (stereo not drawn) [2’-linoleic acid-PX]
Microtubule assembly (microtubule): not able to assemble microtubule

CCCCCCCCCCCCCCC(Br)C(=O)OC(C(=O)OC1CC2(O)C(OC(=O)c3ccccc3)C3C4(OC(C)=O)COC4CC(O)C3(C)C(=O)C(OC(C)=O)C(=C1C)C2(C)C)C(NC(=O)c1ccccc1)c1ccccc1 (stereo not drawn) [2’-α-bromohexadecanoyl-PX]
Fold less potent compared to PX (human MCF-7 cells): 70 fold

CC/C=C\C/C=C\C/C=C\C/C=C\C/C=C\C/C=C/CCC(=O)O[C@@H](C(=O)O[C@H]1C[C@@]2(O)[C@@H](OC(=O)c3ccccc3)C3[C@](C)(C(=O)[C@H](OC(C)=O)C(=C1C)C2(C)C)[C@@H](O)C[C@H]1OC[C@@]31OC(C)=O)[C@@H](NC(=O)c1ccccc1)c1ccccc1 (stereo partly drawn) [DHA-PX, docosahexaenoic acid-PX]
MTD fold higher compared to Taxol (mice): 4.4 fold
Antitumor efficacy [3]: completely eliminated measurable tumors
Tumor AUC of PX fold greater than Taxol ([3]; equimolar dose): 1.71 fold
Tumor AUC of PX fold greater than Taxol ([3]; equitoxic dose): 5.79 fold
Microtubule assembly (microtubule): not able to assemble microtubule
Microtubule assembly activity (microtubule): does not have microtubule assembly activity
Cytotoxic concentration range (human tumor cell lines): µM concentration range
Overall survival [4]: not superior to dacarbazine
P-gp substrate (P-glycoprotein (P-gp)): remains a P-gp substrate
